Assays:
[1] = target: HLA-DR1 (DR1) (DRA*0101/DRB1*010101) (Homo sapiens, UniProt P01903+P01911, A100R/D57E/F55L/F60I/F76Y/I96L/L162R/M171V/P40L/Q125E/R42F/V115G/Y59C); assay: Numerical modeling; type: binding; details: Scheme V
MHC II = details: as previously reported; cited from earlier work

Substance: Ac-PRFVKQNTLRLAT [HA]
- k-3 (values that could produce the same fits) ([1]; bound for same fit): less than 1×10^−4
- k-6 (values that could produce the same fits) ([1]; bound for same fit): less than 1×10^−4
- k-7 (values that could produce the same fits) ([1]; bound for same fit): less than 1×10^−4
- k5 ([1]; best fit value, DM-MHC resolves into inactive MHC II in the absence of peptides, kept the same for HA and CLIP, 0.4 μM DR1, 0.4 μM DM): 0.36 min⁻¹
- intrinsic and DM-catalyzed dissociation half-life (MHC II): ~ 100 hours
